Consider 13 molecules from PubChem BioAssay (NCI).

Some test systems named below: A549 NSCLC; CCRF-CEM leukemia; IGROV1 ovarian; NCI-H23 lung; RPMI-8226 leukemia; SK-MEL-5 melanoma; SW-620 colon; U251 CNS; UACC-62 melanoma.
What all share (assay): NCI tumour cell line growth inhibition, 48 h

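96-well plates; 48 h exposure; 5 concentrations. Endpoints by linear interpolation between flanking doses. Not reached: highest tested concentration assigned. GI50: concentration for 50% inhibition of growth. The concentration for full growth arrest is given as TGI.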 Bounds are passed on as bounds.

Regarding `COc1cc(C(=O)C/C(CCC(=O)Nc2ccc(Cl)cc2Cl)=N/NC(=O)C(N)=O)ccc1O`, the TGI with A549 NSCLC, in the test with CCRF-CEM leukemia, in the test on IGROV1 ovarian, in the test with NCI-H23 lung, in the test with RPMI-8226 leukemia and with SK-MEL-5 melanoma was > 100 µM throughout. Also, the TGI in the test on SW-620 colon, in the test on U251 CNS and in the test with UACC-62 melanoma was > 100 µM each time.

As for `CCC[CH2][Sn]([CH2]CCC)([O]C(=O)c1cc(OC)c(OC)cc1OC)[O]C(=O)c1cc(OC)c(OC)cc1OC`, the GI50 is 5.14 µM in the test on A549 NSCLC; 0.295 µM with CCRF-CEM leukemia; 1.43 µM with IGROV1 ovarian; 0.674 µM in the test on NCI-H23 lung; 0.499 µM in the test on RPMI-8226 leukemia; 1.6 µM in the test with SK-MEL-5 melanoma. For the same molecule, the GI50 in the test with SW-620 colon was 1.13 µM; with U251 CNS, 1.35 µM; in the test with UACC-62 melanoma, 1.12 µM. The TGI with A549 NSCLC worked out at 18.3 µM; in the test with CCRF-CEM leukemia it was 1.11 µM; in the test with IGROV1 ovarian, 2.96 µM; in the test with NCI-H23 lung, 1.96 µM; with RPMI-8226 leukemia, 2.96 µM; with SK-MEL-5 melanoma, 3.18 µM. Besides, the TGI in the test on SW-620 colon came out at 2.83 µM; in the test on U251 CNS, 2.66 µM; with UACC-62 melanoma it was 2.37 µM.

With `COc1c(NC(=O)CC(C)=O)[c]([Hg][O]C(C)=O)c(OC)c(Cl)[c]1[Hg][O]C(C)=O`, the GI50 in the test with A549 NSCLC is 21.9 µM; with CCRF-CEM leukemia it was 4.8 µM; in the test with IGROV1 ovarian, 11.7 µM; in the test on NCI-H23 lung, 11.8 µM; with RPMI-8226 leukemia, 17.5 µM; in the test with SK-MEL-5 melanoma, 12.5 µM. Besides, the GI50 with SW-620 colon is 7.62 µM; with U251 CNS, 10.1 µM; with UACC-62 melanoma it was 11 µM. Also, the TGI in the test on A549 NSCLC turned out to be 47 µM; with CCRF-CEM leukemia, 28.5 µM; with IGROV1 ovarian it was 28.3 µM; in the test on NCI-H23 lung, 27.6 µM; in the test with RPMI-8226 leukemia it was 63.5 µM; with SK-MEL-5 melanoma it was 25 µM. For the same molecule, the figures for the TGI in the test on SW-620 colon, with U251 CNS and with UACC-62 melanoma were 20.8 µM, 23.2 µM and 22.9 µM, respectively.

For `Cc1ccc(S(=O)(=O)SCc2ccccc2CSS(=O)(=O)c2ccc(C)cc2)cc1`, the TGI with A549 NSCLC was > 100 µM; in the test with IGROV1 ovarian, > 100 µM; in the test with NCI-H23 lung, 46.4 µM; with RPMI-8226 leukemia, 43.1 µM; in the test on SK-MEL-5 melanoma, > 100 µM; in the test on SW-620 colon, 31.8 µM. The TGI turned out to be 89.5 µM in the test on U251 CNS and 31 µM in the test with UACC-62 melanoma.

With `O=C(Nc1nc2ccccc2n1Cc1ccc(Cl)cc1)NC12CC3CC(CC(C3)C1)C2`, the TGI in the test with A549 NSCLC was 66.5 µM; in the test on CCRF-CEM leukemia, > 100 µM; in the test with IGROV1 ovarian it was > 100 µM; in the test on NCI-H23 lung, 58.4 µM; in the test on RPMI-8226 leukemia, > 100 µM; in the test on SK-MEL-5 melanoma, > 100 µM. The TGI in the test with SW-620 colon was > 100 µM; in the test on U251 CNS, 46.9 µM; in the test on UACC-62 melanoma it was 38 µM.

In the case of `COc1cc(/C=C/c2ccc(OC(C)=O)cc2)cc(OC)c1OC`, the TGI with A549 NSCLC was 85.2 µM; with CCRF-CEM leukemia, > 100 µM; in the test on IGROV1 ovarian it was > 100 µM; in the test with RPMI-8226 leukemia, 68.6 µM; with SK-MEL-5 melanoma, 34.6 µM; in the test with SW-620 colon, > 100 µM. Besides, the TGI with U251 CNS is > 100 µM; with UACC-62 melanoma it was 70.6 µM.

As to `CC(=O)C1C(=O)C(=O)N(c2ccccc2N2C(=O)C(=O)C(C(C)=O)C2=O)C1=O` (stereo not given), the TGI in the test on A549 NSCLC, in the test on CCRF-CEM leukemia, with IGROV1 ovarian, in the test with NCI-H23 lung, in the test with RPMI-8226 leukemia and in the test on SK-MEL-5 melanoma was > 100 µM each time. Further, the TGI in the test with SW-620 colon, in the test with U251 CNS and with UACC-62 melanoma was > 100 µM in each case.

Turning to `CCOC(=O)[C@H]1Nc2ccc(Cl)cc2[C@H]2OCC[C@@H]12`, the TGI in the test with A549 NSCLC, in the test with CCRF-CEM leukemia, in the test on IGROV1 ovarian, in the test with NCI-H23 lung, in the test with SK-MEL-5 melanoma and with SW-620 colon was > 100 µM in each case. Further, the TGI in the test with U251 CNS and in the test with UACC-62 melanoma was > 100 µM in each case.

For the molecule `Cc1ccc(NC(=O)CC/C(CC(=O)c2ccc(F)cc2)=N\NC(=O)C(=O)NN)cc1C`, the TGI in the test on A549 NSCLC, in the test with CCRF-CEM leukemia, in the test with IGROV1 ovarian, in the test on NCI-H23 lung, with SK-MEL-5 melanoma and in the test on SW-620 colon was > 100 µM throughout. In addition, the TGI in the test with U251 CNS and with UACC-62 melanoma was > 100 µM in each case.

In the case of `CCCCCCCCCC1C(C)c2c([nH]c3ccccc23)C2C(=O)N(c3ccccc3)C(=O)C21` (stereo not given), the TGI in the test on A549 NSCLC is > 100 µM; with CCRF-CEM leukemia, 8.05 µM; with IGROV1 ovarian, 35.3 µM; with NCI-H23 lung, 13.6 µM; in the test with SK-MEL-5 melanoma, 31.6 µM; in the test on SW-620 colon, > 100 µM. The TGI in the test with U251 CNS turned out to be 26.7 µM; in the test on UACC-62 melanoma, 33.1 µM.

For `Cc1ccccc1NC(=O)C1C(=O)N(c2ccccc2C)C(=O)/C1=N\N` (stereo not given), the TGI with A549 NSCLC, in the test with CCRF-CEM leukemia, in the test on IGROV1 ovarian, with NCI-H23 lung, in the test with RPMI-8226 leukemia and in the test with SK-MEL-5 melanoma was > 100 µM in each case. Besides, the TGI in the test on SW-620 colon, in the test on U251 CNS and in the test on UACC-62 melanoma was > 100 µM in each case.

Consider `O=C(O)CCCCCO`, for which the TGI in the test with A549 NSCLC, in the test on CCRF-CEM leukemia, in the test with IGROV1 ovarian, with NCI-H23 lung, in the test with RPMI-8226 leukemia and with SK-MEL-5 melanoma was > 100 µM throughout. For the same molecule, the TGI with SW-620 colon, with U251 CNS and with UACC-62 melanoma was > 100 µM throughout.

As for `COc1cc2c(c(OC)c1OC)-c1ccc(SC)c(=O)cc1[C@@H](NCc1cccc(C#N)c1)CC2`, the GI50 in the test with A549 NSCLC, with CCRF-CEM leukemia, in the test with IGROV1 ovarian, with RPMI-8226 leukemia and in the test with SW-620 colon was < 0.0075 µM each time. The TGI with A549 NSCLC is > 75 µM; in the test on CCRF-CEM leukemia, 6.16 µM; in the test on IGROV1 ovarian it was > 75 µM; in the test with NCI-H23 lung, < 0.0075 µM; in the test with RPMI-8226 leukemia, 40.7 µM; with SK-MEL-5 melanoma, 0.0641 µM. Further, the figures for the TGI in the test on SW-620 colon, with U251 CNS and in the test with UACC-62 melanoma were > 75 µM, 0.0434 µM and 0.0637 µM, respectively.
